From US20240124456A1, “AZA-ERGOLINE DERIVATIVE AND PREPARATION METHOD THEREFOR AND APPLICATION THEREOF” (SHANGHAITECH UNIVERSITY, priority 2021, published 2024)
Like-named read-outs stand apart in the source and are kept apart here.

Legend:
C57B6 male mice = test: Open field athletic ability test, MK801-induced hyperkinesia; format: in vivo; conditions: for 45 minutes moving distance: n=8
Experimental: Experimental method: The experimental animals were C57B6 male mice, n=8 in each group. This model used C57B6 mice as experimental animals. The behavioral representation of hyperkinesia in open field environment in mice was induced by acute injection of NMDA antagonist MK801 and modeled to test the inhibitory effect of different compounds on hyperkinesia phenotype induced by MK801. All mouse behavior experiments were carried out during the light period of the mice, and the whole experiment was recorded by the camera and automatic tracking and data statistics were carried out by behavioral tracking software. The compound was administered by intraperitoneal injection. Immediately after the injection, the mice entered the open field and their movement trajectories began to record. After 30 minutes, the mice received 0.2 mg/kg of MK801 by intraperitoneal injection and returned to the open field immediately after administration and the movement trajectories were further recorded for 120 min. The accumulative moving distance of the mice was counted at a data sampling point every five minutes. Data statistics were carried out using Student-t-test, p<0.05 was *, p<0.01 was **, p<0.001 was ***, p<0.0001 was ****. The total moving distance of the mice in 0-45 minutes under the combined action of different doses of (−)-I-10 and MK801 (0.2 mg/kg) is shown in Table 7.

[1] = Brain permeability in C57 male mice (plasma and brain tissue concentration); format: in vivo; conditions: mouse; for Kp at 0.5 h / Kp at 2 h: brain/plasma; for Kp at 0.5 h: read-out: Brain/blood concentration ratio at 0.5 h; for Kp at 2 h: read-out: Brain/blood concentration ratio at 2.0 h
Experimental: • 2. Test of the brain permeability of compound (−)-I-10 administered to C57 male mice by single intragastric administration, intraperitoneal injection and intravenous injection
Using the same method as the pharmacokinetic experiment, 0.030 mL of blood was taken from each animal through the orbit at 0.5 and 2.0 hours, respectively, and anticoagulated with EDTA-K2. Blood samples were placed on ice after collection, and the plasma was separated by centrifugation within 30 minutes (centrifugation conditions: 5000 rpm, 10 minutes, 4° C.) and stored at −80° C. until analysis. After the animal was euthanized by bloodletting, the brain tissue samples were taken, homogenized with 50% methanol according to the body weight of 1:3 (m/v=1:3), and stored at −80° C. before homogenate analysis. The drug concentrations in plasma and brain tissue were analyzed by LC/MS/MS and compared.

[2] = ip, intraperitoneal injection 1 mg/kg

For CN(C)C(=O)N[C@H]1CC[C@H](CCN2CCN3c4cccc5[nH]cc(c45)C[C@H]3C2)CC1 [(−)-I-10], which “inhibition of the improvement of athletic ability induced by MK801 (in words)” value (C57B6 male mice; 0.4/0.1/0.025 mg/kg) is on record?
Its value is “significantly inhibit”.

What about the “45 minutes moving distance” value (C57B6 male mice; MK801 (0.2 mg/kg) + 0.00625 mg/kg intraperitoneal) of the same compound?
The value was 11626 cm.

And the “45 minutes moving distance” value (C57B6 male mice; MK801 (0.2 mg/kg) + 0.025 mg/kg intraperitoneal)?
Its value is 8643 cm.

What about the “45 minutes moving distance” value (C57B6 male mice; MK801 (0.2 mg/kg) + 0.1 mg/kg intraperitoneal) of the same compound?
Its value is 3833 cm.

What about the “45 minutes moving distance” value (C57B6 male mice; MK801 (0.2 mg/kg) + 0.4 mg/kg intraperitoneal) of the same compound?
Its value is 2644 cm.

What about the concentration at 0.5 h ([1]; brain, intravenous injection 1 mg/kg, read-out: Drug concentration at 0.5 h in brain) of the same compound?
The concentration at 0.5 h was 219 ± 21 ng/mL.

What about the concentration at 2 h ([1]; brain, intravenous injection 1 mg/kg, read-out: Drug concentration at 2.0 h in brain) of the same compound?
The concentration at 2 h was 77 ± 7 ng/mL.

And the concentration at 0.5 h ([1]; brain, ip, intraperitoneal injection 1 mg/kg, read-out: Drug concentration at 0.5 h in brain)?
The concentration at 0.5 h was 193 ± 13 ng/mL.

What about the concentration at 2 h ([1]; brain, ip, intraperitoneal injection 1 mg/kg, read-out: Drug concentration at 2.0 h in brain) of the same compound?
Its concentration at 2 h is 42.7 ± 4 ng/mL.

What about the concentration at 0.5 h ([1]; brain, oral administration 5 mg/kg, read-out: Drug concentration at 0.5 h in brain) of the same compound?
The concentration at 0.5 h was 346 ± 217 ng/mL.

What about the concentration at 2 h ([1]; brain, oral administration 5 mg/kg, read-out: Drug concentration at 2.0 h in brain) of the same compound?
The concentration at 2 h was 169 ± 23 ng/mL.

What about the Kp at 0.5 h ([1]; intravenous injection 1 mg/kg) of the same compound?
The Kp at 0.5 h was 1.65.

What about the Kp at 2 h ([1]; intravenous injection 1 mg/kg) of the same compound?
Its Kp at 2 h is 3.09.

And the Kp at 0.5 h [1, 2]?
Its Kp at 0.5 h is 1.56.

And the Kp at 2 h [1, 2]?
The Kp at 2 h was 3.1.

What about the Kp at 0.5 h ([1]; oral administration 5 mg/kg) of the same compound?
Its Kp at 0.5 h is 1.5.

And the Kp at 2 h ([1]; oral administration 5 mg/kg)?
The Kp at 2 h was 1.78.

What about the concentration at 0.5 h ([1]; plasma, intravenous injection 1 mg/kg, read-out: Drug concentration at 0.5 h in plasma) of the same compound?
The concentration at 0.5 h was 133 ± 19 ng/mL.

What about the concentration at 2 h ([1]; plasma, intravenous injection 1 mg/kg, read-out: Drug concentration at 2.0 h in plasma) of the same compound?
Its concentration at 2 h is 24.9 ± 5 ng/mL.

And the concentration at 0.5 h ([1]; plasma, ip, intraperitoneal injection 1 mg/kg, read-out: Drug concentration at 0.5 h in plasma)?
Its concentration at 0.5 h is 124 ± 15 ng/mL.

What about the concentration at 2 h ([1]; plasma, ip, intraperitoneal injection 1 mg/kg, read-out: Drug concentration at 2.0 h in plasma) of the same compound?
The concentration at 2 h was 13.8 ± 2.7 ng/mL.

And the concentration at 0.5 h ([1]; plasma, oral administration 5 mg/kg, read-out: Drug concentration at 0.5 h in plasma)?
Its concentration at 0.5 h is 231 ± 153 ng/mL.

What about the concentration at 2 h ([1]; plasma, oral administration 5 mg/kg, read-out: Drug concentration at 2.0 h in plasma) of the same compound?
The concentration at 2 h was 95 ± 16 ng/mL.
